Measurements published in US10849901B2, “Arf6 inhibitors and methods of synthesis and use thereof” (Navigen, Inc., priority 2014, dated 2020).

Biological target: Arf6 (Homo sapiens (Human), UniProt P62330)
Experiment: Fluorometric assay for Arf6 nucleotide exchange catalyzed by ARNO Sec7 domain (GTP-BODIPY FL)
Type: biochemical
Conditions: 20 nM Arf6 assay; read-out: IC50 (μM) 20 nM Arf6
Experimental: FIGS. 1A-1D: Fluorometric high throughput assay for Arf6 nucleotide exchange catalyzed by ARNO Sec7 domain. FIG. 1A: Principle of the assay. FIG. 1B: SDS-PAGE analysis of N-terminally His-tagged Arf6(14-175) and ARNO(50-255) purified from the E. coli cultures by immobilized metal affinity chromatography. FIG. 1C: Correlation between signal intensity and ARNO concentration. The assay was performed using 50 mM Tris-HCl, pH 7.5, 1 mM MgCl2, 0.01% TX-100, 1% DMSO, 50 nM GTP-BODIPY FL, supplemented with ARNO-Sec7 at indicated concentrations in the absence or in the presence of 0.2 μM Arf6-GDP. Fluorescence intensities were monitored using a Synergy 4 plate reader (BioTek) at the excitation and emission wavelengths of 490 nm and 520 nm, respectively. FIG. 1D: Time course of apparent inhibitory potency of GDP. The assay was performed in automated mode using a Matrix PlateMate liquid handler.
The primary biochemical assay uses a fluorometric assay for monitoring the replacement of bound nucleotide with a fluorogenic GTP derivative bearing a BODIPY FL moiety, allowing for the identification of compounds that can inhibit this exchange (see FIG. 1A). In certain embodiments, the methods disclosed herein may exploit the reduction of intramolecular fluorescence quenching of the modified nucleotide upon its binding to the target protein (see, e.g., McEwen D P, Gee K R, Kang H C, Neubig R R. Fluorescent BODIPY-GTP analogs: real-time measurement of nucleotide binding to G proteins. Anal Biochem. 2001 Apr. 1; 291(1): 109-17).
The fluorometric assay formatted for 96-well microtiter plates has passed quality control based on the following criteria: i) S/B ratio of 4-fold and Z′-factor of 0.61; ii) linear correlation between signal intensity and ARNO concentration (see FIG. 1C); iii) sufficiently reproducible inhibitory effects of the reference inhibitor GDP for assay durations up to at least 1 hour (see FIG. 1D); and iv) lack of apparent fluorescence quenchers among 400 randomly selected compounds. The assay is amenable to automation with a throughput of approximately 5,000 data points per 8 hours.

Chain of Arf6 (P62330 14-175): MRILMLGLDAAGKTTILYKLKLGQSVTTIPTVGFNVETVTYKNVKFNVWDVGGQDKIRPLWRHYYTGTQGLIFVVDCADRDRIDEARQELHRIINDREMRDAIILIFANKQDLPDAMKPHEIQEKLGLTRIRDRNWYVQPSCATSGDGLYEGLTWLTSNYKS

Question: How did the IC50 turn out when `CS(=O)(=O)c1ccc(-c2cc(=O)n3nc(C4CC4)c(-c4ccc(Cl)cc4)c3[nH]2)cc1` [Compound 91] was run?
Answer: The IC50 was 7.9 µM.

Question: Which IC50 does the source give for `O=C(O)c1ccccc1-c1cc(=O)n2nc(C(F)(F)F)c(-c3ccc(Cl)cc3)c2[nH]1` [Compound 92] here?
Answer: The IC50 was 8.1 µM.

Question: `Cc1nn2c(=O)cc(-c3ccc(F)cc3)[nH]c2c1-c1ccc(Cl)cc1` [Compound 93] was tested. Which IC50 did it give?
Answer: Its IC50 is 8.2 µM.

Question: With `Cc1nn2c(=O)cc(-c3ccc([N+](=O)[O-])cc3)[nH]c2c1-c1ccc(S(C)(=O)=O)cc1` [Compound 94] as the molecule, how does the IC50 read?
Answer: The IC50 was 8.8 µM.

Question: `CCS(=O)(=O)Nc1ccc(-c2cc(=O)n3nc(C)c(-c4ccc(Cl)cc4)c3[nH]2)cc1` [Compound 96] was tested. Which IC50 did it give?
Answer: Its IC50 is 10 µM.

Question: With `CCNC(=O)Nc1ccc(-c2cc(=O)n3nc(C)c(-c4ccc(Cl)cc4)c3[nH]2)cc1` [Compound 97] as the molecule, how does the IC50 read?
Answer: The IC50 was 11 µM.

Question: For `Cc1c(Cc2ccccc2)nn2c(=O)cc(-c3ccc([N+](=O)[O-])cc3)[nH]c12` [Compound 98], which IC50 is on record?
Answer: The IC50 was 11 µM.

Question: How did the IC50 turn out when `O=[N+]([O-])c1ccc(C2=CC(O)n3nc(-c4cccc(Cl)c4)cc3N2)cc1` (stereo not shown) [Compound 100] was run?
Answer: Its IC50 is 13 µM.

Question: `Cc1nn2c(=O)cc(-c3ccc([N+](=O)[O-])cc3)[nH]c2c1-c1ccc(OC(F)(F)F)cc1` [Compound 101] was tested. Which IC50 did it give?
Answer: Its IC50 is 13 µM.

Question: With `O=c1cc(Cc2cccnc2)[nH]c2c(-c3ccc(Cl)cc3)c(C(F)(F)F)nn12` [Compound 102] as the molecule, how does the IC50 read?
Answer: Its IC50 is 14 µM.

Question: For `Cc1nn2c(=O)cc(C3CCCCC3)[nH]c2c1-c1ccc(Cl)cc1` [Compound 103], which IC50 is on record?
Answer: Its IC50 is 14 µM.

Question: For `O=c1cc(-c2ccc([N+](=O)[O-])cc2)[nH]c2c(-c3ccc(Cl)cc3)c(C3CC3)nn12` [Compound 104], which IC50 is on record?
Answer: The IC50 was 14 µM.

Question: `Cc1nn2c(=O)cc(C3CCCC3)[nH]c2c1-c1ccc(Cl)cc1` [Compound 106] was tested. Which IC50 did it give?
Answer: The IC50 was 16 µM.

Question: With `O=C(O)c1ccc(-c2cc(=O)n3nc(C4CC4)c(-c4ccc(Cl)cc4)c3[nH]2)cc1` [Compound 107] as the molecule, how does the IC50 read?
Answer: The IC50 was 16 µM.

Question: How did the IC50 turn out when `N#Cc1ccc(-c2cc(=O)c3nc(C4CC4)c(-c4ccc(Cl)cc4)n3[nH]2)cc1` [Compound 108] was run?
Answer: The IC50 was 16 µM.

Question: `Cc1nn2c(=O)cc(-c3ccc([N+](=O)[O-])cc3)[nH]c2c1C1CCCC1` [Compound 110] was tested. Which IC50 did it give?
Answer: The IC50 was 19 µM.

Question: For `O=C(Nc1cccc(-c2cc(=O)n3nc(C(F)(F)F)c(-c4ccc(Cl)cc4)c3[nH]2)c1)c1ccccc1` [Compound 111], which IC50 is on record?
Answer: The IC50 was 20 µM.

Question: `N#Cc1ccc(-c2cc(=O)n3nc(C4CCOCC4)c(-c4ccc(Cl)cc4)c3[nH]2)cc1` [Compound 112] was tested. Which IC50 did it give?
Answer: Its IC50 is 20 µM.

Question: `CCC(C)(C)C1CCc2c(sc3c2C(=O)NC(c2cc(OC)c(O)c([N+](=O)[O-])c2)N3)C1` (stereo not shown) [Compound 113] was tested. Which IC50 did it give?
Answer: The IC50 was 0.56 µM.

Question: With `N#Cc1c(=O)n(-c2ccc(Cl)cc2)nc2c(=O)n(N)c(-c3ccccc3Cl)cc12` [Compound 114] as the molecule, how does the IC50 read?
Answer: The IC50 was 1.1 µM.

Question: `O=C(Nc1cc(Cl)c(-c2cccc3cccnc23)c(Cl)c1)c1cc(Cl)cc(Br)c1O` [Compound 119] was tested. Which IC50 did it give?
Answer: Its IC50 is 2.1 µM.

Question: How did the IC50 turn out when `O=c1nc(/C=C/c2ccc(-c3cc(Cl)cc(Cl)c3)o2)cc(C(F)(F)F)[nH]1` [Compound 120] was run?
Answer: The IC50 was 3.4 µM.

Question: With `O=C1NC(=S)S/C1=C/c1ccc(N2N=C(c3ccccc3)CC2c2ccccc2)cc1` (stereo not shown) [Compound 121] as the molecule, how does the IC50 read?
Answer: The IC50 was 3.7 µM.

Question: How did the IC50 turn out when `Nc1scc2c(-c3nnc(Nc4ccccc4)s3)nn(-c3ccc([N+](=O)[O-])cc3)c(=O)c12` [Compound 123] was run?
Answer: The IC50 was 5.1 µM.

Question: For `O=C1NC(=O)c2ccccc2/C1=C/c1cnn(Cc2ccccc2)c1` [Compound 124], which IC50 is on record?
Answer: Its IC50 is 5.4 µM.

Question: For `COc1ccc(C(=O)Nc2cccc(/C=C3\C(=O)NC(=O)c4ccccc43)c2)cc1` [Compound 125], which IC50 is on record?
Answer: Its IC50 is 6.5 µM.

Question: With `Cn1cc(/C=C(\CC(=O)O)C2Nc3ccccc3S2)c(-c2ccc3c(c2)OCCCO3)n1` (stereo not shown) [Compound 128] as the molecule, how does the IC50 read?
Answer: Its IC50 is 8.4 µM.

Question: Which IC50 does the source give for `Cc1ccc(C(=O)OCc2cc(=O)n3cc(Br)ccc3n2)cn1` [Compound 130] here?
Answer: Its IC50 is 9.9 µM.

Question: How did the IC50 turn out when `Cc1ccn2c(=O)cc(CSc3nc(C)cc(=O)[nH]3)nc2c1` [Compound 131] was run?
Answer: The IC50 was 11 µM.

Question: Which IC50 does the source give for `CCCc1cc(=O)[nH]c(SCc2cc(=O)n3cc(Br)ccc3n2)n1` [Compound 132] here?
Answer: The IC50 was 30 µM.

Question: With `Cn1c(N)c(C(=O)COC(=O)c2ccccc2SCc2ccc(C#N)cc2)c(=O)[nH]c1=O` [Compound 134] as the molecule, how does the IC50 read?
Answer: Its IC50 is 13 µM.

Question: `O=C1/C(=N/Nc2nc3ccccc3s2)C(c2ccccc2)=NN1c1nc(-c2ccccc2)cs1` [Compound 135] was tested. Which IC50 did it give?
Answer: Its IC50 is 16 µM.

Question: How did the IC50 turn out when `Fc1ccc(C2CC(c3cccs3)=NN2c2nc(-c3ccc(-c4ccccc4)cc3)cs2)cc1` (stereo not shown) [Compound 136] was run?
Answer: The IC50 was 16 µM.

Question: With `CSc1nnc2c(n1)OC(c1cc(O)ccc1[N+](=O)[O-])Nc1ccccc1-2` (stereo not shown) [Compound 137] as the molecule, how does the IC50 read?
Answer: The IC50 was 17 µM.

Question: How did the IC50 turn out when `O=c1[nH]c(CSc2ncnc3sccc23)nc2ccsc12` [Compound 138] was run?
Answer: The IC50 was 17 µM.

Question: `O=C(COC(=O)c1cc2ccccc2[nH]1)NCCSc1ccc(Cl)cc1` [Compound 139] was tested. Which IC50 did it give?
Answer: The IC50 was 19 µM.

Question: `Fc1ccc(C2=CCN(c3nc(-c4ccncc4)nc4c3CNC4)CC2)cc1` [Compound 142] was tested. Which IC50 did it give?
Answer: Its IC50 is 1.2 µM.

Same assay, conditions: 20 nM assay; 10 μM concentration

Question: For `c1nc(C2CCCNC2)cc(N2C[C@@H]3C[C@@H]4C[C@H](C3)N[C@@H]2C4)n1` (stereo partly shown) [Compound 143], which inhibition at 10 µM is on record?
Answer: Its inhibition at 10 µM is roughly 31%.

Question: `CCCCC1CCCN1c1cc(C2CCNCC2)ncn1` (stereo not shown) [Compound 144] was tested. Which inhibition at 10 µM did it give?
Answer: The inhibition at 10 µM was roughly 35%.

Same assay, conditions: 200 nM Arf6 assay; read-out: IC50 (μM) 200 nM Arf6

Question: With `O=c1cc(-c2ccccc2)[nH]c2c(-c3ccccc3)c(Cc3ccccc3)nn12` [Compound 95] as the molecule, how does the IC50 read?
Answer: The IC50 was 9.4 µM.

Question: For `O=c1cc(Cc2ccccc2)[nH]c2c(-c3ccc(Cl)cc3)c(Cc3ccccc3)nn12` [Compound 99], which IC50 is on record?
Answer: Its IC50 is 11 µM.

Question: For `O=[N+]([O-])c1ccc(C2=CC(O)n3nc(-c4cccc(Cl)c4)cc3N2)cc1` (stereo not shown) [Compound 100], which IC50 is on record?
Answer: Its IC50 is 10 µM.

Question: For `O=c1cc(Cc2cccnc2)[nH]c2c(-c3ccc(Cl)cc3)c(C(F)(F)F)nn12` [Compound 102], which IC50 is on record?
Answer: Its IC50 is 17 µM.

Question: For `Cc1nn2c(=O)cc(-c3ccc(Cl)cc3)[nH]c2c1-c1ccc(F)cc1` [Compound 105], which IC50 is on record?
Answer: The IC50 was 15 µM.

Question: Which IC50 does the source give for `COc1ccc(-c2c(C)nn3c(=O)cc(-c4ccc([N+](=O)[O-])cc4)[nH]c23)cc1` [Compound 109] here?
Answer: The IC50 was 17 µM.

Question: For `Cc1cccc(N2C(=O)/C(=C/c3cc([N+](=O)[O-])cc(Br)c3O)SC2=S)c1` [Compound 115], which IC50 is on record?
Answer: The IC50 was 1.1 µM.

Question: For `CCOc1ccc(-c2nn(-c3ccccc3)cc2/C=C2\SC(=S)N(CCC(=O)O)C2=O)cc1C` [Compound 116], which IC50 is on record?
Answer: The IC50 was 1.4 µM.

Question: For `N#Cc1c(SCc2cc(=O)[nH]c(=O)[nH]2)nc2c(c1-c1ccccc1)CC/C2=C\c1ccccc1` [Compound 117], which IC50 is on record?
Answer: Its IC50 is 1.5 µM.

Question: For `Cc1cccc(-n2c(/C=C/c3cccnc3)nc3ccccc3c2=O)c1` [Compound 122], which IC50 is on record?
Answer: The IC50 was 4.7 µM.

Question: How did the IC50 turn out when `CC(C)(C)c1ccc(S(=O)(=O)Nc2ccc(O)c3ccccc23)cc1` [Compound 126] was run?
Answer: Its IC50 is 6.7 µM.

Question: With `O=C(O)c1ccc(C2Nc3c(Br)cccc3C3C=CCC32)cc1` (stereo not shown) [Compound 127] as the molecule, how does the IC50 read?
Answer: The IC50 was 8 µM.

Question: How did the IC50 turn out when `O=c1c2c(-c3ccc(Cl)cc3)csc2[nH]c(=S)n1Cc1ccccc1` [Compound 129] was run?
Answer: Its IC50 is 9.7 µM.

Question: `O=c1c(-c2cccc3ccccc23)c(C(F)(F)F)oc2cc(O)ccc12` [Compound 140] was tested. Which IC50 did it give?
Answer: Its IC50 is 29 µM.

Question: Which IC50 does the source give for `O=C1c2ccccc2C(=O)C1C1=NC2c3ccccc3OC2S1` (stereo not shown) [Compound 141] here?
Answer: The IC50 was 31 µM.

Same assay, conditions: IC50 (μM) 200 nM Arf6, 200 nM Arf6 assay

Question: With `O=C1NC(=S)N(c2cccc(Cl)c2)C(=O)/C1=C/c1cccn1-c1ccc(Cl)cc1` [Compound 118] as the molecule, how does the IC50 read?
Answer: Its IC50 is 1.8 µM.
